What was measured:
CDK6/CyclinD3 = CDK6/CyclinD3 (Homo sapiens, UniProt Q00534); experiment: Kinase activity test (mobility shift assay, EZ Reader), CDK6; type: biochemical; settings: CDK6/CyclinD3 5.00 nM, ATP 350 μM, FL-Peptide34
CDK4/CycD1 = CDK4/CycD1 (Homo sapiens, UniProt P11802); experiment: Kinase activity test (mobility shift assay, EZ Reader), CDK4
Protocol: The tested compounds were subjected to CDK4 and CDK6 kinase IC50 values test.
• (1) Preparing a 1.3× enzyme solution containing enzyme, substrate and cofactor as shown below. • (2) Adding 15 μL of 1.3× enzyme solution to each well and incubating for 30 min at room temperature. • (3) Starting the reaction by adding 5 μL of 4×ATP solution, with each test well containing the listed components and a final volume of 20 μL. • (4) Incubating for 150 minutes and then stopping the reaction by adding 75 μL of buffer (containing 0.5 M EDTA). • (5) Reading the data from each test well by EZ for analysis.
Percentage inhibition was calculated using the read conversion ratio (CR) according to the formula below:
The wells treated with DMSO were used as positive control (positive control) and the wells without enzyme were used as negative control (negative control).

[1] = tested on: ovarian cancer cell A2780; experiment: Cellular antiproliferative assay (MTT, 5 days), A2780; type: cell-based, human; settings: Homo sapiens, 120 h, A2780 cells, 5 days incubation
Protocol: (§1) Human breast cancer cell MCF-7, ovarian cancer cell A2780, human mantle cell lymphoma cell JEKO-1. DMEM medium (Bio-Channel), DMSO (dimethyl sulfoxide), MTT (thiazolyl blue), 0.25% EDTA-Tripsin (tryptic digest), 1×PBS (phosphate buffer, PH7.2), 96-well plate (Corning), fetal bovine serum (FBS), 10,000 U/mL penicillin-G/streptomycin, high-speed cryo-centrifuge (EPPENDORF 5810R), enzyme-linked immunoassay (Tecan Spark).
(§2) • A) Tumor cells were cultured in DMEM (high sugar with 10% FBS and 100 U/mL penicillin-G/streptomycin) at 37° C., 5% CO2 and saturated humidity until 80-90% dense. • B) Removed the culture medium from 10 cm Petri dishes; • C) Rinsed the cells once with 10 ml 1×PBS; • D) Added 4 ml 0.25% EDTA-Tripsin into 37° C., 5% CO2 incubator for trypsin digestion for 5 minutes, transferred to 15 ml centrifuge tube, centrifuged at 200 g for 5 minutes, discarded the supernatant to get cell precipitate; • E) Resuspended with 4 ml DMEM medium, counted and adjust to 50,000 cells/ml. • F) Added cell suspension to 96-well plate with 100 μL per well volume and incubated overnight at 37° C., 5% CO2 incubator.
(§3) • A) Preparation of gradient dilution solution of the tested compound: the test compound was configured into 1 mM reservoir solution.
(§4) • A) Taking the cell culture plate and adding 10 μL of 5 mg/ml MTT in the biosafety cabinet; • B) Putting the cell culture plate back into the incubator and continued incubation for 3 hours; • C) Taking the cell culture plate and removing the culture medium, adding 100 μL isopropanol (containing 0.4 mM HCl, 0.1% NP-40), and shaking the bed at room temperature for 30 min; and • D) Determining the absorbance value by selecting 570 nm on a TECAN enzyme-linked immunoassay detector.
(§5) The % Cell Viability was calculated using the following formula:
(§6) [formula] • Lum_HC: 0.1% DMSO control cell reading • Lum_Sample: cell readings with compound added • Lum_LC: Blank medium reading

[2] = tested on: human mantle cell lymphoma cell JEKO-1; experiment: Cellular antiproliferative assay (MTT, 5 days), JEKO-1; type: cell-based; settings: Homo sapiens, 120 h, JEKO-1 cells, 5 days incubation
Protocol: as §1, §2, §3, §4, §5, §6

[3] = tested on: Human breast cancer cell MCF-7; experiment: Cellular antiproliferative assay (MTT, 5 days), MCF-7; type: cell-based; settings: Homo sapiens, MCF7, 120 h, MCF-7 cells, 5 days incubation
Protocol: as §1, §2, §3, §4, §5, §6

CDK6/CyclinD3, sequence (Q00534 whole entry, species assumed): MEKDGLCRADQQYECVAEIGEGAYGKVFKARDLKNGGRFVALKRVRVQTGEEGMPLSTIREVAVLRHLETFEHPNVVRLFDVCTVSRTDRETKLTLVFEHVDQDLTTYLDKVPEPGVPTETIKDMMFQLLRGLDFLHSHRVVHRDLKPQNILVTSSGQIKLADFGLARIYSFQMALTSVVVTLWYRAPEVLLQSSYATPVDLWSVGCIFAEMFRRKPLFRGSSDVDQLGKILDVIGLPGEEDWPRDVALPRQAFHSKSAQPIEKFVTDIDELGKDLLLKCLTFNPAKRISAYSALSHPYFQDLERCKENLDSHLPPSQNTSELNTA
CDK6/CyclinD3, sequence (P30281 whole entry partner, species assumed): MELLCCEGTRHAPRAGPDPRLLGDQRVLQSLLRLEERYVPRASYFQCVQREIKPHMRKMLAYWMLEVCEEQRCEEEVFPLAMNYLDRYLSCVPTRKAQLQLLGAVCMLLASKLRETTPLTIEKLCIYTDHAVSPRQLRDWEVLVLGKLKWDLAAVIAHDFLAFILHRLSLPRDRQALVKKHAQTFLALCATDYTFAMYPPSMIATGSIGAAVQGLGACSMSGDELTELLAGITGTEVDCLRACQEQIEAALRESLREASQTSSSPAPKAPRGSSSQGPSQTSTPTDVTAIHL
CDK4/CycD1, sequence (P11802 whole entry, species assumed): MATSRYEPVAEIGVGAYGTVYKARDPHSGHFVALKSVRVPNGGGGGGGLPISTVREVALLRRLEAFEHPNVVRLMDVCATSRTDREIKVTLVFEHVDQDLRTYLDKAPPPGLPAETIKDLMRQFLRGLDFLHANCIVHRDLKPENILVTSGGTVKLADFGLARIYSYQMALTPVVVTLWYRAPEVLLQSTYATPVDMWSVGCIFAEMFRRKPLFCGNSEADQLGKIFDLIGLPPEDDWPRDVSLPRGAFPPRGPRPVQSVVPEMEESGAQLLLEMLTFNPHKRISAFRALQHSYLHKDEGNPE
CDK4/CycD1, sequence (P24385 whole entry partner, species assumed): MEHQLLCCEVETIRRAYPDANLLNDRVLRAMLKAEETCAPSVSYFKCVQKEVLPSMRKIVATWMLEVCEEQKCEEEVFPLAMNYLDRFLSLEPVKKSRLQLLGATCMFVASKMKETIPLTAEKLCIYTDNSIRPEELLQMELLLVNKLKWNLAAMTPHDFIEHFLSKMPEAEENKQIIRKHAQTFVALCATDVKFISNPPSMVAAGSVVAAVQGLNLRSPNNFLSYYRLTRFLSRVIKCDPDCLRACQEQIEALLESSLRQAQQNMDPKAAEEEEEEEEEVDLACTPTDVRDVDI

SMILES | IC50 (CDK6/CyclinD3) [nM] | IC50 (CDK4/CycD1) [nM] | IC50 [1] [nM] | IC50 [2] [nM] | IC50 [3] [nM]
CC(C)n1c(N2CCCC2=O)nc2c(F)cc(-c3nc(N[C@@H]4CCOC[C@H]4O)ncc3Cl)cc21 [TA-54] | > 500 |  |  |  | 
COC(=O)N1CCC[C@@H](Nc2ncc(Cl)c(-c3cc(F)c4c(c3)N(C(C)C)CCO4)n2)C1 [TA-10, methyl (R)-3-((5-chloro-4-(8-fluoro-4-isopropyl-3,4-dihydro-2H-benzo[b][1,4]oxazin-6-yl)pyrimidin-2-yl)amino)piperidine-1-carboxylate] | 206 | 57.6 |  |  | 
CC(C)n1c(N(C)C)nc2c(F)cc(-c3nc(N[C@H]4CC[C@@H](NS(C)(=O)=O)CC4)ncc3Cl)cc21 [TB-4] | > 500 |  |  |  | 
COC(=O)N1CCC(Nc2ncc(Cl)c(-c3cc(F)c4nc5n(c4c3)CCCN5C)n2)CC1 [TB-93, methyl 4-((5-chloro-4-(9-fluoro-1-methyl-1,2,3,4-tetrahydrobenzo[4,5]imidazo[1,2-a]pyrimidin-7-yl)pyrimidin-2-yl)amino)piperidine-1-carboxylate] | > 500 |  | ≤ 500 | ≤ 500 | 500 to 2000
CN1CCCn2c1nc1c(F)cc(-c3nc(NC4CCC(F)(F)CC4)ncc3Cl)cc12 [TB-95, 5-chloro-N-(4,4-difluorocyclohexyl)-4-(9-fluoro-1-methyl-1,2,3,4-tetrahydrobenzo[4,5]imidazo[1,2-a]pyrimidin-7-yl)pyrimidin-2-amine] | > 500 |  |  |  | 
CN1CCCn2c1nc1c(F)cc(-c3nc(N[C@@H]4CCOC[C@H]4O)ncc3C(F)(F)F)cc12 [TB-41, (3S,4R)-4-((4-(9-fluoro-1-methyl-1,2,3,4-tetrahydrobenzo[4,5]imidazo[1,2-a]pyrimidin-7-yl)-5-(trifluoromethyl)pyrimidin-2-yl)amino)tetrahydro-2H-pyran-3-ol] | > 500 |  | 500 to 2000 | 500 to 2000 | 500 to 2000
CC(C)N1CCOc2c(F)cc(-c3nc(NC4CCOCC4)ncc3F)cc21 [TA-8, 5-fluoro-4-(8-fluoro-4-isopropyl-3,4-dihydro-2H-benzo[b][1,4]oxazin-6-yl)-N-(tetrahydro-2H-pyran-4-yl)pyrimidin-2-amine] | 67.3 | 21.4 |  |  | 
COC(=O)N(C)c1nc2c(F)cc(-c3nc(N[C@@H]4CCOC[C@H]4O)ncc3Cl)cc2n1C(C)C [TB-8, methyl (6-(5-chloro-2-(((3S,4R)-3-hydroxytetrahydro-2H-pyran-4-yl)amino)pyrimidin-4-yl)-4-fluoro-1-isopropyl-1H-benzo[d]imidazol-2-yl)(methyl)carbamate] |  |  | ≤ 500 | ≤ 500 | 500 to 2000
CN1CCCn2c1nc1c(F)cc(-c3nc(N[C@@H]4CCOC[C@H]4O)ncc3F)cc12 [TB-42, (3S,4R)-4-((5-fluoro-4-(9-fluoro-1-methyl-1,2,3,4-tetrahydrobenzo[4,5]imidazo[1,2-a]pyrimidin-7-yl)pyrimidin-2-yl)amino)tetrahydro-2H-pyran-3-ol] |  |  | ≤ 500 | ≤ 500 | ≤ 500
CC(C)n1c(N2CCOC2=O)nc2c(F)cc(-c3nc(N[C@@H]4CCOC[C@H]4O)ncc3Cl)cc21 [TA-55] |  |  | ≤ 500 | ≤ 500 | ≤ 500
CC(C)n1c(N2CCOC2=O)nc2c(F)cc(-c3nc(Nc4ccc(S(=O)(=O)NC5(C#N)CC5)cc4)ncc3Cl)cc21 [TB-68] | > 500 |  |  |  | 
CCN1CCN(Cc2ccc(Nc3ncc(Cl)c(-c4cc(F)c5nc(N(C)C)n(C(C)C)c5c4)n3)nc2)CC1 [TB-16] |  |  | ≤ 500 | ≤ 500 | ≤ 500
CNS(=O)(=O)N1CCC(Nc2ncc(Cl)c(-c3cc(F)c4nc5n(c4c3)CCCN5C)n2)CC1 [TB-144, 4-((5-chloro-4-(9-fluoro-1-methyl-1,2,3,4-tetrahydrobenzo[4,5]imidazo[1,2-a]pyrimidin-7-yl)pyrimidin-2-yl)amino)-N-methylpiperidine-1-sulfonamide] |  |  | ≤ 500 | ≤ 500 | ≤ 500
CN1CCn2c1nc1c(F)cc(-c3nc(N[C@@H]4CCOC[C@H]4O)ncc3Cl)cc12 [TB-45, (3S,4R)-4-((5-chloro-4-(8-fluoro-1-methyl-2,3-dihydro-1H-benzo[d]imidazo[1,2-a]imidazol-6-yl)pyrimidin-2-yl)amino)tetrahydro-2H-pyran-3-ol] |  |  | ≤ 500 | ≤ 500 | ≤ 500
CC(C)n1c(N2CC[C@H](O)C2)nc2c(F)cc(-c3nc(N[C@@H]4CCOC[C@H]4O)ncc3Cl)cc21 [TB-6, (S)-1-(6-(5-chloro-2-(((3S,4R)-3-hydroxytetrahydro-2H-pyran-4-yl)amino)pyrimidin-4-yl)-4-fluoro-1-isopropyl-1H-benzo[d]imidazol-2-yl)pyrrolidin-3-ol] |  |  | ≤ 500 | ≤ 500 | 500 to 2000
CC(C)n1c(N(C)CCO)nc2c(F)cc(-c3nc(N[C@@H]4CCOC[C@H]4O)ncc3Cl)cc21 [TB-9, (3S,4R)-4-((5-chloro-4-(4-fluoro-2-((2-hydroxyethyl)(methyl)amino)-1-isopropyl-1H-benzo[d]imidazol-6-yl)pyrimidin-2-yl)amino)tetrahydro-2H-pyran-3-ol] |  |  | ≤ 500 | ≤ 500 | 500 to 2000
CC(C)n1c(N(C)C)nc2c(F)cc(-c3nc(NC4CCOCC4)ncc3Cl)cc21 [TB-2, 6-(5-chloro-2-((tetrahydro-2H-pyran-4-yl)amino)pyrimidin-4-yl)-4-fluoro-1-isopropyl-N,N-dimethyl-1H-benzo[d]imidazol-2-amine] |  |  | ≤ 500 | ≤ 500 | ≤ 500
CC(C)n1c(N(C)C)nc2c(F)cc(-c3nc(N[C@H]4CC[C@H](NS(C)(=O)=O)CC4)ncc3Cl)cc21 [TB-5] |  |  | ≤ 500 | ≤ 500 | ≤ 500
CCS(=O)(=O)N1CCC(Nc2ncc(Cl)c(-c3cc(F)c4nc5n(c4c3)CCCN5C)n2)CC1 [TB-143, 5-chloro-N-(1-(ethylsulfonyl)piperidin-4-yl)-4-(9-fluoro-1-methyl-1,2,3,4-tetrahydrobenzo[4,5]imidazo[1,2-a]pyrimidin-7-yl)pyrimidin-2-amina] |  |  | ≤ 500 | ≤ 500 | ≤ 500
CC(C)n1c(N2CCOC2=O)nc2c(F)cc(-c3nc(Nc4ccc(S(=O)(=O)NCCN(C)C)cc4)nc4[nH]cnc34)cc21 [TB-70] |  |  | ≤ 500 | ≤ 500 | ≤ 500
CC(C)n1c(N2CCOC2=O)nc2c(F)cc(-c3nc(NC4CCN(S(=O)(=O)C5CC5)CC4)ncc3Cl)cc21 [TB-33] |  |  | ≤ 500 | ≤ 500 | ≤ 500
CN1C(=O)CCn2c1nc1c(F)cc(-c3nc(N[C@@H]4CCOC[C@H]4O)ncc3Cl)cc12 [TB-46, 7-(5-chloro-2-(((3S,4R)-3-hydroxytetrahydro-2H-pyran-4-yl)amino)pyrimidin-4-yl)-9-fluoro-1-methyl-3,4-dihydrobenzo[4,5]imidazo[1,2-a]pyrimidin-2(1H)-one] |  |  | ≤ 500 | ≤ 500 | ≤ 500
CC(C)n1c(N2CCOC2=O)nc2c(F)cc(-c3nc(NC4CCN(S(=O)(=O)C(C)C)CC4)ncc3Cl)cc21 [TB-32] |  |  | ≤ 500 | ≤ 500 | ≤ 500
CN1CCCn2c1nc1c(F)cc(-c3nc(NC4CCOCC4)ncc3Cl)cc12 [TB-132, 5-chloro-4-(9-fluoro-1-methyl-1,2,3,4-tetrahydrobenzo[4,5]imidazo[1,2-a]pyrimidin-7-yl)-N-(tetrahydro-2H-pyran-4-yl)pyrimidin-2-amine] |  |  | ≤ 500 | ≤ 500 | 500 to 2000
CC(C)n1c(N(C)C)nc2c(F)cc(-c3nc(N[C@@H]4CCOC[C@H]4O)ncc3Cl)cc21 [TB-1] |  |  | ≤ 500 | ≤ 500 | ≤ 500
COc1cc(N2CCNCC2)ccc1Nc1ncc(Cl)c(-c2cc(F)c3nc(N(C)C)n(C(C)C)c3c2)n1 [TB-17, 6-(5-chloro-2-((2-methoxy-4-(piperazin-1-yl)phenyl)amino)pyrimidin-4-yl)-4-fluoro-1-isopropyl-N,N-dimethyl-1H-benzo[d]imidazol-2-amine] |  |  | 500 to 2000 | 500 to 2000 | 500 to 2000
CC(C)n1c(N(C)C)nc2c(F)cc(-c3nc(NC4CCN(S(C)(=O)=O)CC4)ncc3Cl)cc21 [TB-3, 6-(5-chloro-2-((1-(methylsulfonyl)piperidin-4-yl)amino)pyrimidin-4-yl)-4-fluoro-1-isopropyl-N,N-dimethyl-1H-benzo[d]imidazol-2-amine] |  |  | ≤ 500 | ≤ 500 | ≤ 500

From patent publication US20260078114A1, “COMPOUND USED AS INHIBITOR OF CDK4 KINASE AND USE THEREOF” (TYK MEDICINES, INC., priority 2022, published 2026)
